According to PMC10931776, “Modes of Interactions with DNA/HSA Biomolecules and Comparative Cytotoxic Studies of Newly Synthesized Mononuclear Zinc(II) and Heteronuclear Platinum(II)/Zinc(II) Complexes toward Colorectal Cancer Cells” (International Journal of Molecular Sciences, 2024):
Where two headings read alike, the source gives them in different places.

How the values were obtained:
CT-DNA = experiment: Ethidium bromide/CT-DNA fluorescence quenching (EB displacement); type: binding; conditions: EB/CT-DNA 1:1, 5 µM, PBS pH 7.4, room temperature, λex 527 nm, λem 612 nm
Description: Fluorescent spectroscopy allows the determination of the intercalation potential of compounds. Intercalation involves planar aromatic molecules binding between the base pairs of DNA chains, causing them to elongate. Ethidium bromide (EB) is commonly used as a DNA intercalator and produces high levels of fluorescent emissions at 612 nm when intercalating between DNA strands. However, the addition of compounds that can intercalate between DNA strands and suppress the effects of EB will reduce fluorescent emissions. If a complex is able to replace EB, fluorescence reduction will occur, indicating the complex’s ability to bind intercalatively. Figure 3 and Figures S10–S13 show the results of fluorescence titrations in the presence of intercalator EB, where the emission intensity of a constant CT-DNA/EB solution concentration of 5 µM was monitored with increasing complex concentration up to a ratio of 5.
To determine whether the complex could displace EB from the CT-DNA-EB complex, the interactions of the complex with CT-DNA were examined in the presence of EB. The CT-DNA-EB solution was formed by combining EB and CT-DNA solutions with a concentration of 5 μM at a pH of 7.4. The impact of the complex binding to the CT-DNA was measured by analyzing the fluorescence emission spectrum after the addition of the examined complexes solution in increasing concentration, Figure 3.
The binding affinity of the complexes C1–C5 to CT-DNA via intercalation was determined using fluorescence spectroscopy. All measurements were conducted at room temperature in 0.01 M PBS with a pH of 7.4. Fluorescence measurements were performed by adding increasing complex concentrations (0–50 μM) to a CT-DNA and EB solution. Before each measurement, the system was shaken at room temperature. The fluorescence intensity was measured with the wavelength of excitation at 527 nm and the wavelength of emission at 612 nm. The width of the excitation and emission slits (10 nm) and scan rate were maintained at a constant rate. The emission of the solution was recorded in the range of 550 to 750 nm. The Stern–Volmer constants, Ksv, were determined by Equation (2). I0/I = 1 + Ksv[Q](2) [Q] is the concentration of the complex, I0 and I represent emission intensities in the absence and presence of complex, and Ksv is the Stern–Volmer constant obtained from the slope of the plot of I0/I vs. [Q] [25, 26, 27, 28].

[1] = molecular target: T1, Human serum albumin (HSA) (Homo sapiens, UniProt P02768); experiment: HSA fluorescence quenching; type: binding; conditions: for Stern–Volmer constant Ksv, HSA: HSA 2 µM, complex 0–30 µM, PBS pH 7.4, room temperature, λex 295 nm
T1 construct: reagents in general came from Sigma-Aldrich, Acros Organics or Merck
T1 sequence (P02768 25-609): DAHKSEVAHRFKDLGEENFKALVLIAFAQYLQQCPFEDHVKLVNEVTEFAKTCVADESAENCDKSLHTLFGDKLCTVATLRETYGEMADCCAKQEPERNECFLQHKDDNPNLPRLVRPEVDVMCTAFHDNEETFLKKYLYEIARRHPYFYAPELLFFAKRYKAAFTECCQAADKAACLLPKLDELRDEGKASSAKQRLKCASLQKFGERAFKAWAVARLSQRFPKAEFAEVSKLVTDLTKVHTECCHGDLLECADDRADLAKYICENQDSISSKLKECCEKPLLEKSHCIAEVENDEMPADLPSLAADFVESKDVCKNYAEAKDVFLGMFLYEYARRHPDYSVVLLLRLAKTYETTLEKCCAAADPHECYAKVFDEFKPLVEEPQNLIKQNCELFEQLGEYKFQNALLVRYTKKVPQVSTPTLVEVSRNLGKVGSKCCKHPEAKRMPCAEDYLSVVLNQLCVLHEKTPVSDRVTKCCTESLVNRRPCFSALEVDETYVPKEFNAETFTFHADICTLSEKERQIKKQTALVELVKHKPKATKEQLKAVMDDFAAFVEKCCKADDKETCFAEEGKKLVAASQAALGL
Description: Human serum albumin (HSA) produces a fluorescence signal when excited at 295 nm due to the tryptophan residues. This characteristic makes fluorescence spectroscopy an effective tool for studying complex interactions involving HSA. If the examined complex interacts with HSA, an increasing concentration of the complex will lead to a decrease in fluorescence, as shown in Figure 4 and Figures S14–S17. […] The Stern–Volmer equation (Equation (S2)) was used to determine the Stern–Volmer constant, Ksv, for the HSA interactions.
The binding affinity of the complexes C1–C5 to HSA has been determined through fluorescence quenching experiments. The measurements were conducted in a 0.01 M PBS with a pH of 7.4 at room temperature. The HSA concentration was kept constant at 2 μM while the concentration of complexes C1–C5 was increased from 0 to 30 μM, resulting in a significant decrease in emissions at 352 nm. Before each measurement, the system was shaken at room temperature. The fluorescence intensity was measured with the wavelength of excitation at 295 nm and recorded in the 300 to 500 nm range. The width of the excitation and emission slits (10 nm) and scan rate were maintained at a constant rate. The Stern–Volmer constants, Ksv, were determined by Equation (2).

[2] = test system: mouse colorectal carcinoma (CT26); experiment: MTT cytotoxicity assay, CT26; type: cell-based; conditions: 48 h; for IC50: read-out: IC50 ± SEM, CT26
Procedure: (§1) The in vitro cytotoxicity of newly synthesized mono- and heteronuclear platinum(II)/and zinc(II) complexes, featuring a 4,4′,4″-tri-tert-butyl-2,2′:6′,2″-terpyridine ligand (designated as C1–C5), was assessed using MTT assay procedures. This evaluation targeted various cell lines: mouse colorectal carcinoma (CT26), human colorectal carcinoma (HCT116 and SW480), and non-cancerous mouse mesenchymal stem cells (mMSC). These cell lines were exposed to synthesized complexes for 48 h, with concentrations ranging from 1.17 to 150 μM.
(§2) In our study, various cell lines were cultured, including mouse colorectal carcinoma (CT26), human colorectal carcinoma (HCT116 and SW480) obtained from ATCC, USA, and mouse mesenchymal stem cells (mMSC, Gibco), New York, NY, USA). These cell lines were consistently maintained in complete Dulbecco’s Modified Eagle Medium (DMEM) supplemented with 10% fetal bovine serum (FBS) (Sigma Aldrich, St. Louis, MO, USA), 100 IU/mL penicillin, and 100 μg/mL streptomycin antibiotics (Invitrogen, Carlsbad, CA, USA). The cultures were incubated at 37 °C in a humidified atmosphere of 5% carbon dioxide (CO2). […] The viability and count of the cells were determined using Trypan blue staining, ensuring the accuracy and reliability of the experimental outcomes.
(§3) The cytotoxic effects of five newly synthesized complexes, alongside cisplatin, were assessed through the MTT assay method, in line with previously established protocols. During the exponential growth phase, cells were collected from culture flasks, counted, and then seeded in 96-well culture plates at a density of 5·10^3 cells per well. Subsequent treatment involved exposing these cells to varying concentrations of the newly synthesized complexes and cisplatin (ranging from 1.17 to 150 μM) for a duration of 48 h, with fresh complete medium serving as the control. The results were quantified relative to the control (untreated cells), providing a comparative measure of cytotoxicity. Additionally, IC50 values, representing the concentration required to inhibit 50% of the cell viability, were calculated using Microsoft Office Excel 2010. Lastly, the data were presented as percentages of viable cells in accordance with the methodology outlined in the referenced study, facilitating a comprehensive understanding of the anticancer potential of these compounds.

[3] = test system: mouse mesenchymal stem cells (mMSC); experiment: MTT cytotoxicity assay, mMSC; type: cell-based; conditions: 48 h, non-cancerous cells, read-out: IC50 ± SEM, mMSCs
Procedure: as §1
In the context of developing low-toxicity drugs, it is imperative to evaluate the antiproliferative activity against normal cells. The in vitro toxicity of the tested complexes toward normal mouse mesenchymal stem cells (mMSC) was examined. […] These findings indicate the possibility of enhanced in vivo tolerance for this complex.
as §2, §3

[4] = test system: human colorectal carcinoma (SW480); experiment: MTT cytotoxicity assay, SW480; type: cell-based; conditions: 48 h; for IC50: read-out: IC50 ± SEM, SW480
Procedure: as §1, §2, §3

[5] = test system: human colorectal carcinoma (HCT116); experiment: MTT cytotoxicity assay, HCT116; type: cell-based; conditions: 48 h; for IC50: read-out: IC50 ± SEM, HCT 116
Procedure: as §1, §2, §3

B-DNA (PDB ID: 1BNA) = molecular target: B-DNA (PDB ID: 1BNA); design: method as in PMID 36535193, doi:10.1002/aoc.7413; conditions: previously tested complexes; ref [11],[12]; read-out: Ki (inhibition constant), docking with DNA; cited from earlier work
[6] = molecular target: T1, Human serum albumin (HSA); design: method as in earlier work; conditions: literature value; ref [24]; cited from earlier work

Stern–Volmer constant Ksv, HSA [1] | Compound | Stern–Volmer constant Ksv, CT-DNA (CT-DNA) | Selectivity Index (IC50 mMSC/IC50), CT26 [2] | IC50 [2] [µM] | IC50 [3] [µM] | Selectivity Index (IC50 mMSC/IC50), SW480 [4] | IC50 [4] [µM] | Selectivity Index (IC50 mMSC/IC50), HCT 116 [5] | IC50 [5] [µM] | Ki (B-DNA (PDB ID: 1BNA)) [µM] | other results
9.5 ± 0.1 10^4 M^–1 | [{trans-PtCl(NH3)2(μ-4,4′-bipyridyl)ZnCl(terpy^t^Bu)}](CIO4)2 [C5] | 2.9 ± 0.1 10^4 M^–1 | 0.4 | 108 ± 79.9 | 40.2 ± 3.96 | 0.5 | 75.4 ± 21.2 | 0.3 | 152 ± 26.8 |  | 
22.7 ± 0.1 10^4 M^–1 | [{cis-PtCl(NH3)2(μ-4,4′-bipyridyl)ZnCl(terpy^t^Bu)}](CIO4)2 [C4] | 5.2 ± 0.1 10^4 M^–1 | 0.3 | 183 ± 72.4 | 60.3 ± 24.7 | 0.6 | 94.1 ± 9.89 | 0.7 | 89.4 ± 6.7 |  | Ksv value for HSA, order of magnitude ([1]; fluorescence quenching of HSA): ~10^5 M^−1
5.8 ± 0.1 10^4 M^–1 | CC(C)(C)c1ccnc(-c2cc(C(C)(C)C)cc(-c3cc(C(C)(C)C)ccn3)n2)c1.N.N.[Cl-].[Cl-].[O-][Cl+3]([O-])([O-])[O-].[O-][Cl+3]([O-])([O-])[O-].[Pt+2].[Zn+2].c1cnccn1 [C2, [{cis-PtCl(NH3)2(μ-pyrazine)ZnCl(terpy^t^Bu)}](ClO4)2] | 2.9 ± 0.1 10^4 M^–1 | 0.3 | 35.1 ± 39.6 | 10.1 ± 0.98 | 0.4 | 25.7 ± 2.93 | 0.4 | 26.6 ± 25.9 |  | 
 | [{cis-PtCl(NH3)2(μ-4,4′-bipyridyl)ZnCl(terpy-Cl)}](ClO4)2 [C3a] |  |  |  |  |  |  |  |  | 52.1 | 
 | [{trans-PtCl(NH3)2(μ-4,4′-bipyridyl)ZnCl(terpy)}](ClO4)2 [C4b] |  |  |  |  |  |  |  |  | 1.22 | 
4.5 ± 0.1 10^4 M^–1 | [{trans-PtCl(NH3)2(μ-pyrazine)ZnCl(terpy^t^Bu)}](ClO4)2 [C3] | 2.1 ± 0.1 10^4 M^–1 | 0.4 | 210 ± 87 | 76.2 ± 12 | 1.1 | 68.1 ± 5.21 | 0.4 | 181 ± 105 |  | 
 | [{trans-PtCl(NH3)2(μ-pyrazine)ZnCl(terpy-Cl)}](ClO4)2 [C2a] |  |  |  |  |  |  |  |  | 231 | 
 | [{cis-PtCl(NH3)2(μ-4,4′-bipyridyl)ZnCl(terpy)}](ClO4)2 [C3b] |  |  |  |  |  |  |  |  | 1.01 | 
 | [{trans-PtCl(NH3)2(μ-4,4′-bipyridyl)ZnCl(terpy-Cl)}](ClO4)2 [C4a] |  |  |  |  |  |  |  |  | 117 | 
 | [{cis-PtCl(NH3)2(μ-pyrazine)ZnCl(terpy-Cl)}](ClO4)2 [C1a] |  |  |  |  |  |  |  |  | 248 | 
 | N.N.[Cl][Pt][Cl] [cisplatin, reference compound] |  | 0.8 | 9.03 ± 3.55 | 7.32 ± 2.51 | 0.7 | 10.1 ± 3.98 | 0.5 | 14.7 ± 2.21 |  | Stern–Volmer constant Ksv, HSA [6]: 0.24 ** 10^4 M^–1
 | [{cis-PtCl(NH3)2(μ-pyrazine)ZnCl(terpy)}](ClO4)2 [C1b] |  |  |  |  |  |  |  |  | 18.1 | 
 | [{trans-PtCl(NH3)2(μ-pyrazine)ZnCl(terpy)}](ClO4)2 [C2b] |  |  |  |  |  |  |  |  | 16.3 | 
